DBAASP
Converted amounts (≈) assume the structure as drawn. “And” between values parts separate entries of the source, which are not always exact repeats. Equal values may be shown once. Values belong to the compound of their own block, whether it stands above or below them.

Legend:
Assay in all cases: ≥ marks a high value that may be exact or a test limit, other limits are often not marked, values filed in µg/mL are converted to µM
[1] = system: Neisseria gonorrhoeae F62
[2] = system: Neisseria gonorrhoeae FA19
[3] = system: Vibrio harveyi BCRC 13812
Vibrio alginolyticus = system: Vibrio alginolyticus
[4] = system: Streptococcus pneumoniae BCRC 10794
[5] = system: Staphylococcus aureus BCRC 10780
[6] = system: Staphylococcus sp. BCRC 10451
[7] = system: Micrococcus luteus BCRC 11034
[8] = system: Escherichia coli ATCC 25922
[9] = system: Staphylococcus aureus ATCC 25923
Rhizoctonia solani = system: Rhizoctonia solani
[10] = system: Colletotrichum graminicola
Fusarium oxysporum = system: Fusarium oxysporum
[11] = system: Proteus mirabilis ATCC 25933
[12] = system: Candida albicans ATCC 90028
[13] = system: Klebsiella pneumoniae KK3 9904
[14] = system: Enterobacter cloacae HNTCC 53001
[15] = system: Enterococcus faecalis ATCC 29212
[16] = system: Pseudomonas aeruginosa ATCC 27853
[17] = system: Staphylococcus aureus NCTC 8325
[18] = system: Staphylococcus epidermidis RP62A
[19] = system: Acinetobacter baumannii AL1851-ΔLpxA
[20] = system: Candida tropicalis CEMTC 2385
[21] = system: Candida albicans CEMTC 34
[22] = system: Citrobacter freundii DSM 30029
[23] = system: Pseudomonas aeruginosa DSM 1117
[24] = system: Candida albicans ATCC 10231
[25] = system: Salmonella enterica DSM 17058
[26] = system: Escherichia coli DSM 1103
[27] = system: Staphylococcus epidermidis DSM 28319
Shigella sonnei DSM 5570 = system: Shigella sonnei DSM 5570
[28] = system: Acinetobacter baumannii ATCC 19606
[29] = system: Klebsiella pneumoniae DSM 789
[30] = system: Acinetobacter baumannii Al1852-ΔLpxD
[31] = system: Candida parapsilosis CEMTC 2529
[32] = system: Staphylococcus aureus DSM 11729
[33] = system: Candida glabrata CEMTC 2563
[34] = system: Escherichia coli ATCC 35218
[35] = system: Staphylococcus aureus ATCC 25325
[36] = system: Bacillus cereus ATCC 11778
[37] = system: Pseudomonas aeruginosa ATCC 9027
[38] = system: Staphylococcus aureus ATCC 25023

Structure (SMILES): CC[C@H](C)[C@H](NC(=O)CNC(=O)[C@H](CCCCN)NC(=O)[C@H](Cc1ccccc1)NC(=O)[C@@H](NC(=O)[C@H](CCCCN)NC(=O)[C@H](CCCCN)NC(=O)[C@H](CC(C)C)NC(=O)[C@H](C)NC(=O)[C@H](CCCCN)NC(=O)[C@H](CC(C)C)NC(=O)CN)C(C)C)C(=O)N[C@@H](Cc1cnc[nH]1)C(=O)N[C@@H](CCCCN)C(=O)N[C@@H](C)C(=O)N[C@H](C(=O)N[C@@H](CCCCN)C(=O)N[C@@H](CC(C)C)C(=O)N[C@H](C(=O)N[C@@H](CC(N)=O)C(=O)N[C@@H](CCCCN)C(=O)N[C@@H](Cc1cnc[nH]1)C(=O)N[C@H](C(=O)N[C@@H](CCC(N)=O)C(=O)O)C(C)C)[C@@H](C)CC)[C@@H](C)CC [GLKALKKVFKGIHKAIKLINKHVQ]
MIC [8]: 5 µM (≈ 13.6 µg/mL)
MIC [11]: ≥ 80 µM
MIC [12]: ≥ 80 µM
MIC [13]: 5 µM (≈ 13.6 µg/mL)
MIC [14]: 2.5 µM (≈ 6.78 µg/mL)
MIC [15]: > 80 µM
MIC [16]: 5 µM (≈ 13.6 µg/mL)
MIC [17]: 20 µM (≈ 54.2 µg/mL)
MIC [18]: 10 µM (≈ 27.1 µg/mL)

Structure (SMILES): NCCCC[C@H](NC(=O)[C@H](Cc1ccccc1)NC(=O)[C@H](Cc1ccccc1)NC(=O)[C@H](CCCCN)NC(=O)[C@H](Cc1ccccc1)NC(=O)[C@H](Cc1ccccc1)NC(=O)[C@H](CCCCN)NC(=O)[C@H](Cc1ccccc1)NC(=O)[C@H](Cc1ccccc1)NC(=O)[C@@H](N)CCCCN)C(N)=O [KFFKFFKFFK]
MIC [19]: 16 µM (≈ 22.6 µg/mL)
MIC [20]: 10 µM (≈ 14.1 µg/mL)
MIC [21]: 20 µM (≈ 28.3 µg/mL)
MIC [22]: 4 µM (≈ 5.65 µg/mL)
MIC [23]: 1 µM (≈ 1.41 µg/mL)
MIC [24]: 20 µM (≈ 28.3 µg/mL)
MIC [25]: 16 µM (≈ 22.6 µg/mL)
MIC [26]: 2 µM (≈ 2.83 µg/mL)
MIC [27]: 0.5 µM (≈ 0.706 µg/mL)
MIC (Shigella sonnei DSM 5570): 2 µM (≈ 2.83 µg/mL)
MIC [28]: 32 µM (≈ 45.2 µg/mL)
MIC [29]: ≥ 32 µM
MIC [30]: ≥ 32 µM
MIC [31]: 20 µM (≈ 28.3 µg/mL)
MIC [32]: 16 µM (≈ 22.6 µg/mL)
MIC [33]: 20 µM (≈ 28.3 µg/mL)

Structure (SMILES): CC(C)C[C@H](NC(=O)CNC(=O)[C@@H](NC(=O)[C@H](Cc1cnc[nH]1)NC(=O)[C@H](CCCCN)NC(=O)[C@H](CC(C)C)NC(=O)[C@@H](N)CCCCN)C(C)C)C(=O)N[C@@H](Cc1cnc[nH]1)C(=O)N[C@H](C(=O)NCC(=O)N[C@@H](CCCCN)C(=O)N[C@@H](CC(C)C)C(=O)N[C@@H](CCCCN)C(=O)O)C(C)C [KLKHVGLHVGKLK]
MIC [15]: 52.3 µM (≈ 76.2 µg/mL)
MIC [16]: 56 µM (≈ 81.6 µg/mL)
MIC [34]: ≥ 43.4 µM
MIC [35]: ≥ 40.2 µM

Structure (SMILES): CC(C)C[C@H](NC(=O)[C@@H](NC(=O)[C@H](CCCCN)NC(=O)[C@H](CCCCN)NC(=O)[C@H](CC(C)C)NC(=O)[C@@H](N)CC(C)C)C(C)C)C(=O)N[C@@H](CCCCN)C(=O)N[C@@H](C)C(=O)N[C@@H](C)C(=O)N[C@@H](C)C(N)=O [LLKKVLKAAA]
MIC [9]: > 50 µM
MIC [36]: ≥ 50 µM
MIC [37]: > 50 µM
MIC [34]: ≥ 50 µM

More lines, now with the values ahead:

MIC [1]: 3.2 µM (≈ 4.49 µg/mL)
MIC [2]: 10 µM (≈ 14 µg/mL)
Structure (SMILES): CC(C)[C@H](NC(=O)[C@@H]1CSSC[C@H](N)C(=O)N[C@@H](Cc2ccc(O)cc2)C(=O)N[C@H]2CSSC[C@H](NC(=O)[C@H](Cc3ccccc3)NC(=O)[C@H](CCCN=C(N)N)NC(=O)[C@H](CCCN=C(N)N)NC(=O)[C@H](CCCN=C(N)N)NC2=O)C(=O)N[C@@H](C(C)C)C(=O)N1)C(N)=O [CYCRRRFCVCV]

MIC [3]: 4.17 µM (≈ 6.42 µg/mL)
MIC (Vibrio alginolyticus): 4.17 µM (≈ 6.42 µg/mL)
MIC [4]: 16.7 µM (≈ 25.7 µg/mL)
MIC [5]: 4.17 µM (≈ 6.42 µg/mL)
MIC [6]: 4.17 µM (≈ 6.42 µg/mL)
MIC [7]: ≥ 33.3 µM
Structure (SMILES): CC[C@H](C)[C@H](NC(=O)[C@H](Cc1ccccc1)NC(C)=O)C(=O)N[C@@H](Cc1ccccc1)C(=O)N[C@@H](Cc1cnc[nH]1)C(=O)N[C@H](C(=O)N[C@H](C(=O)N[C@@H](CCCCN)C(=O)NCC(=O)N[C@@H](CC(C)C)C(=O)N[C@@H](Cc1ccccc1)C(=O)N[C@@H](Cc1cnc[nH]1)C(=O)N[C@@H](C)C(=O)NCC(N)=O)[C@@H](C)CC)[C@@H](C)CC [FIFHIIKGLFHAG]

MIC [8]: > 125 µM and 163 µM
MIC [9]: > 125 µM and 163 µM
MIC (Rhizoctonia solani): ≥ 41.8 µM
MIC [10]: ≥ 163 µM
MIC (Fusarium oxysporum): ≥ 163 µM
Structure (SMILES): CC(C)[C@H](NC(=O)[C@@H]1CCCN1C(=O)[C@@H](N)Cc1ccccc1)C(=O)N[C@H](C(=O)N[C@@H](Cc1c[nH]c2ccccc12)C(=O)N1CCC[C@H]1C(=O)N[C@H](C(=O)N[C@@H](CCCCN)C(=O)N[C@@H](Cc1c[nH]c2ccccc12)C(=O)N[C@@H](Cc1c[nH]c2ccccc12)C(=O)N[C@@H](CCCCN)C(=O)NCC(N)=O)[C@@H](C)O)[C@@H](C)O [FPVTWPTKWWKG]

MIC [38]: 1.51 µM (≈ 2 µg/mL)
Structure (SMILES): CC(C)C[C@H](NC(=O)[C@H](CCCN=C(N)N)NC(=O)[C@H](CC(C)C)NC(=O)[C@H](CC(C)C)NC(=O)[C@H](CC(C)C)NC(=O)[C@H](CC(C)C)NC(=O)[C@H](CC(C)C)NC(=O)[C@H](CCCCN)NC(=O)[C@H](Cc1c[nH]c2ccccc12)NC(=O)[C@@H](N)CCCN=C(N)N)C(N)=O [RWKLLLLLRL]
